# Experimental data reported in patent US12018048B2, “Anthelmintic depsipeptide compounds” (BOEHRINGER INGELHEIM ANIMAL HEALTH USA INC., priority 2015, dated 2024).
# Read-outs that look alike come from different tables or passages of the source.
# Assays:
# [1] = amide bond, 24-membered ring
# [2] = system: Haemonchus contortus L1 larvae; experiment: Screening method to test activity against Haemonchus contortus (L1 larval development, microtitre plate); conditions: 96 h; for MIC90: read-out: median MIC90 value; for EC50: read-out: median EC50 value
# Procedure: METHOD A: Screening method to test activity of compounds against Haemonchus contortus.
# Twenty L1 Haemonchus contortus larvae were added to wells of a microtitre plate containing a nutrient medium and the test compound in DMSO. An analysis was conducted at 4 days to determine the extent of development of the larvae. Larvae exposed to DMSO alone served as controls.
# The EC50 and MIC90 recordings were obtained using different instruments.
# [3] = system: microfilaria of Dirofilaria immitis; experiment: Screening method to test activity against microfilaria of Dirofilaria immitis (survival, microtitre plate); format: cell-based; conditions: 72 h, read-out: median EC50 value
compound,measurement,setting,value
CC(C)C[C@H]1C(=O)O[C@H](C)C(=O)N(C)[C@@H](CC(C)(C)F)C(=O)O[C@H](Cc2ccc(C3CCOCC3)cc2)C(=O)N(C)C2(CC2)C(=O)O[C@H](C)C(=O)N(C)[C@@H](CC(C)(C)F)C(=O)O[C@H](Cc2ccc(C3CCOCC3)cc2)C(=O)N1C,"ring closure, yield after HPLC","[1]; from H-MeAcc(1-aminocyclopropanecarboxylic)-dLac-MeLeu(4-F)-dPhLac(4-oxan-4-yl)-MeLeu-dLac-MeLeu(4-F)-dPhLac(4-oxan-4-yl)-OH, BOP-Cl/DIEA, DCM, 0.87 mM",39%
CN1C(=O)COC(=O)[C@H](CC2CC2)N(C)C(=O)[C@@H](Cc2ccc(C3CCOCC3)cc2)OC(=O)[C@H](CC(C)(C)F)N(C)C(=O)COC(=O)[C@H](CC2CC2)N(C)C(=O)[C@@H](Cc2ccc(C3CCOCC3)cc2)OC(=O)[C@@H]1CC(C)(C)F,"ring closure, yield after HPLC","[1]; from H-MeLeu(4-F)-dPhLac(4-oxan-4-yl)-MeAla(3-cyclopropyl)-Glycolic-MeLeu(4-F)-dPhLac(4-oxan-4-yl)-MeAla(3-cyclopropyl)-Glycolic-OH, BOP-Cl/DIEA, DCM, 2.57 mM",33%
"C[C@H]1OC(=O)[C@H](CC2CC2)N(C)C(=O)[C@@H](Cc2ccc(N3CCOCC3)cc2)OC(=O)[C@H](CC2CC2)N(C)C(=O)[C@@H](C)OC(=O)[C@H](CC2CC2)N(C)C(=O)[C@@H](Cc2ccc(N3CCOCC3)cc2)OC(=O)[C@H](CC2CC2)N(C)C1=O [Compound 6-1A, (3S,6R,9S,12R,15S,18R,21S,24R)-3,9,15,21-tetrakis(cyclopropylmethyl)-4,10,12,16,22,24-hexamethyl-6,18-bis([[4-(morpholin-4-yl)phenyl]methyl])-1,7,13,19-tetraoxa-4,10,16,22-tetraazacyclotetracosan-2,5,8,11,14,17,20,23-octone]",MIC90,[2],1 to 10 µM
same,"ring closure, yield after HPLC","[1]; from H-MeAla(cyclopropyl)-dPhLac(4-morpholino)-MeAla(cyclopropyl)-dLac-MeAla(cyclopropyl)-dPhLac(4-morpholino)-MeAla(cyclopropyl)-dLac-OH, BOP-Cl/DIEA, DCM, 1.5 mM",13%
same,EC50,[3],100 to 1000 nM
"CC(C)C[C@H]1C(=O)O[C@H](C)C(=O)N(C)[C@@H](CC2CC2)C(=O)O[C@H](Cc2ccc(N3CCOCC3)cc2)C(=O)N(C)[C@@H](CC(C)C)C(=O)O[C@H](C)C(=O)N(C)[C@@H](CC2CC2)C(=O)O[C@H](Cc2ccc(N3CCOCC3)cc2)C(=O)N1C [Compound 6-7A, (3S,6R,9S,12R,15S,18R,21S,24R)-3,15-bis(cyclopropylmethyl)-4,6,10,16,18,22-hexamethyl-9,21-bis(2-methylpropyl)-12,24-bis([[4-(morpholin-4-yl)phenyl]methyl])-1,7,13,19-tetraoxa-4,10,16,22-tetraazacyclotetracosan-2,5,8,11,14,17,20,23-octone]",MIC90,[2],0.1 to 1 µM
same,"ring closure, yield after HPLC","[1]; from H-MeAla(cyclopropyl)-dPhLac(4-morpholino)-MeLeu-dLac-MeAla(cyclopropyl)-dPhLac(4-morpholino)-MeLeu-dLac-OH, BOP-Cl/DIEA, DCM, 3.2 mM",8%
same,EC50,[3],100 to 1000 nM
"C[C@H]1OC(=O)[C@H](CC2CC2)N(C)C(=O)[C@@H](Cc2ccc(C3CCOCC3)cc2)OC(=O)[C@H](CC(C)(C)F)N(C)C(=O)[C@@H](C)OC(=O)[C@H](CC2CC2)N(C)C(=O)[C@@H](Cc2ccc(C3CCOCC3)cc2)OC(=O)[C@H](CC(C)(C)F)N(C)C1=O [Compound 7-34A, (3S,6R,9S,12R,15S,18R,21S,24R)-3,15-bis(cyclopropylmethyl)-9,21-bis(2-fluoro-2-methylpropyl)-4,-10,12,16,22,24-hexamethyl-6,18-bis([[4-(oxan-4-yl)phenyl]methyl])-1,7,13,19-tetraoxa-4,10,16,22-te-traazacyclotetracosan-2,5,8,11,14,17,20,23-octone]",EC50,[2],< 100 nM
same,MIC90,[2],< 0.1 µM
same,"ring closure, yield after HPLC","[1]; from H-MeLeu(4-F)-dPhLac(4-oxan-4-yl)-MeAla(3-cyclopropyl)-dLac-MeLeu(4-F)-dPhLac(4-oxan-4-yl)-MeAla(3-cyclopropyl)-dLac-OH, BOP-Cl/DIEA, DCM, 2.75 mM",14%
same,EC50,[3],< 100 nM
"CC(C)C[C@H]1C(=O)O[C@H](C)C(=O)N(C)[C@@H](CC2CC2)C(=O)O[C@H](Cc2ccc(N3CCOCC3)nc2)C(=O)N(C)[C@@H](CC(C)C)C(=O)O[C@H](C)C(=O)N(C)[C@@H](CC2CC2)C(=O)O[C@H](Cc2ccc(N3CCOCC3)nc2)C(=O)N1C [Compound 9-7A, (3S,6R,9S,12R,15S,18R,21S,24R)-3,15-bis(cyclopropylmethyl)-4,6,10,16,18,22-hexamethyl-9,21-bis(2-methylpropyl)-12,24-bis([[6-(morpholin-4-yl)pyridin-3-yl]methyl])-1,7,13,19-tetraoxa-4,10,16,22-tetraazacyclotetracosan-2,5,8,11,14,17,20,23-octone]","ring closure, yield after HPLC","[1]; from H-MeAla(cyclopropyl)-dLac(3-[6-(morpholin-4-yl)pyridin-3-yl])-MeLeu-dLac-MeAla(cyclopropyl)-dLac(3-[6-(morpholin-4-yl)pyridin-3-yl])-MeLeu-dLac-OH?, BOP-Cl/DIEA, DCM, 4.2 mM",12%
same,EC50,[3],1000 to 10000 nM
"C[C@H]1OC(=O)C2(CC2)N(C)C(=O)[C@@H](Cc2ccc(C3CCOCC3)cc2)OC(=O)[C@H](CC(C)(C)F)N(C)C(=O)[C@@H](C)OC(=O)C2(CC2)N(C)C(=O)[C@@H](Cc2ccc(C3CCOCC3)cc2)OC(=O)[C@H](CC(C)(C)F)N(C)C1=O [Compound 969-34A, (6R,9S,12R,20R,23S,26R)-9,23-bis(2-fluoro-2-methylpropyl)-4,10,12,18,24,26-hexamethyl-6,20-bis([[4-(oxan-4-yl)phenyl]methyl])-7,13,21,27-tetraoxa-4,10,18,24-tetraazadispiro[2.11.2^[15].11^[3]]octacosan-5,8,11,14,19,22,25,28-octone]",EC50,[2],1000 to 10000 nM
same,"ring closure, yield after HPLC","[1]; from H-MeAcc(1-aminocyclopropanecarboxylic)-dLac-MeLeu(4-F)-dPhLac(4-oxan-4-yl)-MeAcc(1-aminocyclopropanecarboxylic)-dLac-MeLeu(4-F)-dPhLac(4-oxan-4-yl)-OH, BOP-Cl/DIEA, DCM, 3.2 mM",29%
same,EC50,[3],1000 to 10000 nM
"(3S,6R,9S,12R,15S,18R,21S,24R)-3,15-bis(cyclopropylmethyl)-9,21-bis(2-fluoro-2-methylpropyl)-4,10,12,16,22,24-hexamethyl-6,18-bis([[4-(morpholin-4-yl)phenyl]methyl])-1,7,13,19-tetraoxa-4,10,16,22-tetraazacyclotetracosan-2,5,8,11,14,17,20,23-octone","ring closure, yield after HPLC",[1]; DIEA,24%
